Data as given in the supplement of paper PMC6580486.

Key:
[1] = test system: PCB490-3 (human epithelioid sarcoma primary culture)
Procedure: (§1)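 Roche open-access kinase inhibitor screen (223 compounds) on human epithelioid sarcoma primary cultures from three spatially distinct regions of tumor PCB490. 384-well plates, 72 h, CellTiter-Glo viability; IC50 by Hill curve fit. 100000 nM = no IC50 reached. Compound ids carry a plate-well prefix, which is stripped.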

[2] = test system: PCB490-4 (human epithelioid sarcoma primary culture)
Procedure: as §1

[3] = test system: PCB490-5 (human epithelioid sarcoma primary culture)
Procedure: as §1

Row | SMILES | IC50 cell viability [1] | IC50 cell viability [2] | IC50 cell viability [3]
1 | Nc1c(C(=O)c2cccc(C#CCO)c2)cnn1-c1ccc(F)cc1 | > 100 µM | > 100 µM | > 100 µM
2 | O=C1NC(=NCCc2cccc(F)c2)S/C1=C\c1ccc2ncccc2c1 | > 100 µM | > 100 µM | > 100 µM
3 | O=C1NC(=N[C@@H](CO)c2ccccc2)S/C1=C\c1ccc2ncccc2c1 | > 100 µM | > 100 µM | > 100 µM
4 | COc1cccc(C2=C(c3cn(C)c4cc(F)ccc34)C(=O)NC2=O)c1 | > 100 µM | > 100 µM | > 100 µM
5 | CC(=O)N[C@@H](Cc1ccc(OP(=O)(O)O)cc1)C(=O)N[C@H]1CCC(=O)N2CCC[C@@H](C(=O)NCc3ccccc3)N2C1=O | > 100 µM | > 100 µM | > 100 µM
6 | Nc1[nH]nc2nc(-c3cccs3)cc(C(F)(F)F)c12 | > 100 µM | > 100 µM | > 100 µM
7 | Cn1cc(C2=C(c3cn(CCCN/C(N)=N/[N+](=O)[O-])c4ccccc34)C(=O)NC2=O)c2ccccc21 | > 100 µM | > 100 µM | > 100 µM
8 | Cc1ccc2c(c1)c(C1=C(c3cn(C)c4ccccc34)C(=O)NC1=O)cn2C | > 100 µM | > 100 µM | > 100 µM
9 | CS(=O)(=O)CCc1cccc(C(=O)c2cnn(-c3ccc(F)cc3)c2N)c1 | > 100 µM | > 100 µM | > 100 µM
10 | Cn1cc(C2=C(c3cccc(Cl)c3)C(=O)NC2=O)c2ccccc21 | > 100 µM | > 100 µM | > 100 µM
11 | Cn1cc(C2=C(c3cn(CCCCN)c4ccccc34)C(=O)NC2=O)c2ccccc21 | > 100 µM | > 100 µM | > 100 µM
12 | Cn1c(=O)c(Oc2ccc(F)cc2F)cc2cnc(NC(CO)CO)nc21 | > 100 µM | 15 µM | 8.58 µM
13 | Cn1c(=O)c(-c2ccccc2Cl)cc2cnc(NC3CCOCC3)nc21 | > 100 µM | > 100 µM | > 100 µM
14 | Cn1cc(C2=C(c3c4n(c5ccccc35)CCCCC4)C(=O)NC2=O)c2ccccc21 | > 100 µM | > 100 µM | > 100 µM
15 | O=C1NC(=NCc2ccccc2Cl)S/C1=C\c1ccc2ncccc2c1 | > 100 µM | > 100 µM | > 100 µM
16 | N#Cc1ccc(C(=O)c2cnn(-c3ccc(F)cc3)c2N)cc1 | > 100 µM | > 100 µM | > 100 µM
17 | COc1cc(F)c(F)c(F)c1C(=O)c1cnc(NC2CCN(S(C)(=O)=O)CC2)nc1N | > 100 µM | 4.47 µM | 7.14 µM
18 | Cc1[nH]nc2c1N=C(c1ccccc1F)c1cc(C#N)ccc1N2 | > 100 µM | > 100 µM | > 100 µM
19 | O=C1OC(=O)C(c2c[nH]c3ccccc23)=C1c1c[nH]c2ccccc12 | > 100 µM | > 100 µM | > 100 µM
20 | COc1cc[nH]c1/C=C1\C(=O)Nc2ccccc21 | > 100 µM | > 100 µM | > 100 µM

Row | SMILES | IC50 cell viability [1] | IC50 cell viability [2] | IC50 cell viability [3]
21 | Nc1c(C(=O)c2ccc(CCCN3CCOCC3)cc2)cnn1-c1ccc(F)cc1 | > 100 µM | > 100 µM | > 100 µM
22 | Cn1c(=O)c(Cc2ccccc2F)cc2cnc(NC3CCOCC3)nc21 | > 100 µM | > 100 µM | > 100 µM
23 | Cn1c(=O)c(Oc2ccccc2F)cc2cnc(NC3CCOCC3)nc21 | > 100 µM | > 100 µM | > 100 µM
24 | CC(=O)N[C@@H](Cc1ccc(OP(=O)(O)O)cc1)C(=O)N[C@H]1CCC(=O)N2CCC[C@@H](C(=O)NCc3ccc(Cl)cc3)N2C1=O | > 100 µM | > 100 µM | > 100 µM
25 | Cn1cc(C2=C(c3cccc([N+](=O)[O-])c3)C(=O)NC2=O)c2ccccc21 | > 100 µM | > 100 µM | > 100 µM
26 | CNCC#Cc1c(F)ccc2c1/C(=C/c1[nH]ccc1OC)C(=O)N2 | 26.8 µM | 20.7 µM | 19.5 µM
27 | Nc1c(C(=O)c2ccc(C#CCN3CCOCC3)cc2)cnn1-c1ccc(F)cc1 | > 100 µM | > 100 µM | > 100 µM
28 | O=C1NC(=NCC(CO)c2ccccc2)S/C1=C\c1ccc2ncccc2c1 (stereo not given) | > 100 µM | > 100 µM | > 100 µM
29 | Cn1cc(C2=C(c3cn(C)c4cc(C(N)=O)ccc34)C(=O)NC2=O)c2ccccc21 | > 100 µM | > 100 µM | > 100 µM
30 | Cn1cc(C2=C(c3cn(CCCCCN)c4ccccc34)C(=O)NC2=O)c2ccccc21 | > 100 µM | > 100 µM | > 100 µM
31 | O=C1NC(=NCCc2ccc(Cl)cc2)S/C1=C\c1ccc2ncccc2c1 | > 100 µM | > 100 µM | > 100 µM
32 | Nc1c(C(=O)c2cccc(CCS(N)(=O)=O)c2)cnn1-c1ccc(F)cc1 | > 100 µM | > 100 µM | > 100 µM
33 | CC(=O)N[C@@H](Cc1ccc(OP(=O)(O)O)cc1)C(=O)N[C@H]1CCC(=O)N2CCC[C@@H](C(=O)NC3CCc4ccccc43)N2C1=O (stereo not given in full) | > 100 µM | > 100 µM | > 100 µM
34 | COc1ccc(O)c(C(=O)c2ccc(C(=O)O[C@@H]3CCCNC[C@H]3NC(=O)c3ccncc3)cc2)c1F | > 100 µM | > 100 µM | > 100 µM
35 | COc1ccc2c(c1)C(c1ccccc1Cl)=Nc1c(n[nH]c1C)N2 | > 100 µM | > 100 µM | > 100 µM
36 | Nc1c(C(=O)c2cccc(-c3ccc[n+]([O-])c3)c2)cnn1-c1ccc(F)cc1F | > 100 µM | > 100 µM | > 100 µM
37 | CS(=O)(=O)CCCn1c(=O)c(Oc2ccc(F)cc2F)cc2cnc(NC3CCOCC3)nc21 | > 100 µM | > 100 µM | > 100 µM
38 | O=C1NC(=O)/C(=C/c2ccc3ncccc3c2)S1 | > 100 µM | > 100 µM | > 100 µM
39 | N#Cc1c(C(=O)c2ccccc2)cnn1-c1ccccc1 | > 100 µM | > 100 µM | > 100 µM
40 | COc1cccc(C2=C(c3cn(C)c4c(C)cccc34)C(=O)NC2=O)c1 | > 100 µM | > 100 µM | > 100 µM

Row | SMILES | IC50 cell viability [1] | IC50 cell viability [2] | IC50 cell viability [3]
41 | COc1cccc2c1c(C1=C(c3cn(C)c4ccccc34)C(=O)NC1=O)cn2C | > 100 µM | > 100 µM | > 100 µM
42 | Cn1c(=O)c(Oc2ccccc2)cc2cnc(NC3CCOCC3)nc21 | > 100 µM | > 100 µM | > 100 µM
43 | CS(=O)(=O)CCn1c(=O)c(Oc2ccc(F)cc2F)cc2cnc(NC3CCOCC3)nc21 | > 100 µM | > 100 µM | > 100 µM
44 | CN[C@H](C#Cc1c(F)ccc2c1/C(=C/c1[nH]ccc1OC)C(=O)N2)CO | > 100 µM | > 100 µM | 1.77 µM
45 | Cn1c(=O)c(Sc2ccccc2F)cc2cnc(NC3CCOCC3)nc21 | > 100 µM | > 100 µM | > 100 µM
46 | Nc1c(C(=O)c2cccc(C(O)CO)c2)cnn1-c1ccc(F)cc1 (stereo not given) | > 100 µM | > 100 µM | > 100 µM
47 | Cn1c(=O)c(Oc2ccc(F)cc2F)cc2cnc(NC3CCOCC3)nc21 | > 100 µM | > 100 µM | > 100 µM
48 | C[C@H](O)CNc1cc(-c2[nH]c3cccnc3c2-c2ccc(F)cc2)ccn1 | > 100 µM | > 100 µM | > 100 µM
49 | O=C1NC(=NCCc2ccccc2F)S/C1=C\c1ccc2ncccc2c1 | > 100 µM | > 100 µM | > 100 µM
50 | Nc1c(C(=O)c2cccc(OC[C@H](O)CO)c2)cnn1-c1ccc(F)cc1 | > 100 µM | > 100 µM | > 100 µM
51 | Cc1ccc(C)c(C2=C(c3cn(C)c4ccccc34)C(=O)NC2=O)c1 | > 100 µM | > 100 µM | > 100 µM
52 | Nc1c(C(=O)c2ccccc2)cnn1-c1ccc(F)cc1 | > 100 µM | > 100 µM | > 100 µM
53 | Cn1cc(C2=C(c3cccc(OCC(O)CO)c3)C(=O)NC2=O)c2ccccc21 (stereo not given) | > 100 µM | > 100 µM | > 100 µM
54 | CC(CO)Nc1cc(-c2[nH]c3cccnc3c2-c2ccc(F)cc2)ccn1 (stereo not given) | > 100 µM | > 100 µM | > 100 µM
55 | COc1ccccc1CN=C1NC(=O)/C(=C/c2ccc3ncccc3c2)S1 | > 100 µM | > 100 µM | > 100 µM
56 | Cn1c(=O)c(Oc2ccc(F)cc2F)cc2cnc(NC(C)(C)CO)nc21 | > 100 µM | > 100 µM | > 100 µM
57 | Cn1c(=O)c(Oc2cccc(F)c2)cc2cnc(NC3CCOCC3)nc21 | > 100 µM | > 100 µM | > 100 µM
58 | Cn1cc(C2=C(N3CCOCC3)C(=O)NC2=O)c2ccccc21 | > 100 µM | > 100 µM | > 100 µM
59 | NC1=NC(=O)/C(=C/c2ccc3ncccc3c2)S1 | > 100 µM | > 100 µM | > 100 µM
60 | Cc1ccccc1C1=C(c2cn(C)c3ccccc23)C(=O)NC1=O | > 100 µM | > 100 µM | > 100 µM
